Source: US8450502B2, “Pharmaceutical compositions for inhibiting angiogenesis” (Industry-Academic Cooperation Foundation Yonsei University, priority 2008, dated 2013)

What was measured:
[1] = test system: HIV; details: cited from earlier work
[2] = test system: embryonic chick chorioallantoic membrane (CAM); details: cited from earlier work
[3] = target: T1, mitochondrial protein QP-C (Homo sapiens, UniProt P14927); assay: Competitive binding assay by fluorescent staining in HUVECs; type: cell-based; details: for Inhibition of binding between coumarin-terpestacin and QP-C (blue fluorescence in the cytoplasm): HUVEC, pretreatment 24 hours with HDNT 10 μM or terpestacin 30 μM, coumarin-terpestacin 20 μM 2 hours
T1 construct: endogenous in cells; host or cells: HUVEC
T1 sequence (P14927 1-111): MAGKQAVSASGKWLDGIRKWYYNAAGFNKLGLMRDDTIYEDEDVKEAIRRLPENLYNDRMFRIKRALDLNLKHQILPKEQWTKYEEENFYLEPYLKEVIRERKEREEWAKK
Description: Human umbilical vein endothelial cells (HUVEC) were seeded on a 24-well plate (2×10^4 cells/well) and cultured in EBM-2 (LONZA®) medium containing 10% fetal bovine serum (INVITROGEN®). Then, the cells were washed with PBS buffer (pH 7.4), and the culture medium was replaced with a fresh one. The inventive compound HDNT (10 μM) or the compound terpestacin (30 μM) binding to QP-C was added to each well and the cells were incubated for 24 hours. A fluorescent dye coumarin (20 μM) and coumarin-conjugated terpestacin (20 μM) were each added to the control group and the treated group, followed by incubation for another 2 hours. The cells were washed with PBS buffer. Fluorescent intensity was observed under an IX70 fluorescent microscope (OLYMPUS®) and a microscopic image was taken (see FIG. 7).

[4] = test system: QP-C-expressing bacteriophage T7 (human QP-C); assay: Competitive binding assay by phage display; details: competitor 200 μM, biotinylated terpestacin 5 μM immobilized
Description: Bacteriophage T7 (NOVAGEN®) was purchased which encodes cDNA library obtained from live different human tissues (hepatoma, normal liver, dementia brain, normal brain, and normal stomach). A host cell E. coli BLT5615 was infected with Bacteriophage followed by amplification. Biotinylated terpestacin (5 μM) in TBS buffer (pH 7.5) was immobilized on a streptavidin-coated 96-well plate (Pierce Biotechnology), and then the amplified, bacteriophage T7 library (6×1.0^9 pfu/mL) was added to the terpestacin-immobilized wells. After being stirred at room temperature for 1 hour, bacteriophage T7 particles which were not hound to terpestacin were washed with TBS buffer to remove the non-bound bacteriophage T7 particles. Terpestacin-bound bacteriophage T7 particles were elated for 1 hour with addition of terpestacin (100 μM) dissolved in TBS buffer. The elated bacteriophage T7 particles were infected into E. coli strain BLT5615 cultured on LB agar medium. The thus-formed bacteriophage T7 plaques were isolated and DNA sequences were analyzed to obtain bacteriophage expressing a ubiquinone-binding protein (QP-C) of the mitochondria complex III.
QP-C-expressing bacteriophage T7 was infected into a host cell E. coli BLT5615, followed by amplification. […] The thus-formed bacteriophage plaques were counted and the results were compared between the treated group and the control group (see FIG. 6).

[5] = test system: human umbilical vein endothelial cells (HUVEC); details: cited from earlier work
[6] = target: T2, purified QP-C protein (Homo sapiens, UniProt P14927); assay: Competitive binding assay by surface plasmon resonance; details: compound 25 μM, QP-C protein 25 μM, biotinylated terpestacin 100 μM immobilized
T2 construct: GST (N, cleaved yes); made in house; host or cells: E. coli BL21
T2 sequence (P14927 1-111): T1 sequence (P14927 1-111)
Description: Using, liver tissue cDNA library as a template, a QP-C gene (GENBANK® Accession No. NM_006294 was amplified by polymerase chain reaction (PCR). Sequences of PCR primers used herein are as follows: forward primer 5′-[…]-3′, and reverse primer 5′-[…]-3′. The QP-C gene was inserted into a multi cloning site (EcoRI/XhoI site) of a pGEX-4T1 vector (Amersham Pharmacia) which was then transformed into E. coli BL21 for protein expression, IPTG (1 mM) was added to the LB culture OD600=0.6) of the transformed bacteria, followed by shaking culture at 37° C. for 4 hours. The cells were disrupted using a sonicator and the expressed GST/QP-C fusion protein was purified by addition of glutathione agarose heads (SIGMA®). In order to remove a GST portion of the fusion protein, thrombin (Amersham Pharmacia) was added thereto at room temperature, followed by overnight stirring. Only the supernatant containing the QP-C protein was recovered by centrifugation (see FIG. 2). […]
The binding sensorgram containing association and dissociation curves was obtained by BIACORE® 2000, and 50 mM NaOH (5 μl) was poured on the sensor chip surface to result in regeneration. […] A surface plasmon resonance response curve was analyzed using BIACORE® Evaluations software, version 3.1 (see FIG. 8).

[7] = test system: human umbilical vein endothelial cells (HUVEC); assay: Tube formation of human umbilical vein endothelial cells (VEGF-induced, Matrigel); type: cell-based; details: VEGF 30 ng/mL, HDNT 2.5, 5 μM, 8 hours
Description: A 48-well plate was coated with 150 μl of Matrigel (10 mg/mL, Collaborative Biomedical Products), followed by polymerization at 37° C. for 2 hours. […] The cells were cultured in an incubator for 8 hours while observing morphological changes of the cells under a microscope.

[8] = test system: mitochondrial membrane potential of HUVECs; assay: Determination of mitochondrial membrane potential (JC-1 staining); type: cell-based, human; details: HUVEC, HDNT 1, 5, 10 μM, 4 hours
Description: Human umbilical vein endothelial cells (HUVEC) were seeded on a 24-well plate (2×10^4 cells/well) and cultured in EBM-2 (LONZA®) medium containing 10% fetal bovine serum (INVITROGEN®). Then, the cells were washed with PBS buffer (pH 7.4) and the culture medium was then replaced with a fresh one. The inventive compound HDNT (1, 5, 10 μM) was added to the culture medium and the cells were incubated for 4 hours. In order to measure changes of the mitochondrial membrane potential, the cells were stained with […] a lipophilic cationic probe 5,5′6,6′-tetrachloro-1,1′,3,3′-tetraethylbenzimidazole-carbocyanine iodide (JC-1, MOLECULAR PROBES®) for 15 min. The carbocyanine cationic dye forms a red fluorescent J-aggregate at a hyperpolarization membrane potential (to −140 mV), and the dye maintains a green fluorescent monomeric form at a depolarization membrane potential (to −100 mV). The stained cells were washed twice with PBS buffer. A microscopic image (×100) was obtained under an IX70 fluorescent microscope OLYMPUS®) (see FIG. 5).

[9] = test system: human umbilical vein endothelial cells (HUVEC); assay: HUVEC invasion assay (Transwell, VEGF); type: cell-based; details: VEGF 30 ng/mL, HDNT 2.5, 5 μM, 18 hours
Description: Invasion of human umbilical vein endothelial cells (HUVEC) was measured in vitro using a TRANSWELL® chamber system (Corning Costar) equipped with a polycarbonate filter. First, a lower part of the filter was coated with 10 μl of gelatin (10 mg/mL) for 1 hour, and an upper part of the filter was coated with 10 μl of MATRIGEL® (3 mg/mL) for 2 hours. […] The coated filter was placed on the TRANSWELL®, and HUVECs (1×10^5 cells/well) were inoculated on the upper part of the filter, followed by cell culture in an incubator for 18 hours. Then, the cells were fixed with 70% methanol and stained with hematoxylin/eosin. Total cells in one filter were microscopically counted to measure a degree of cell invasion (see FIG. 4).

Structure (SMILES)	Formation of syncytium during HIV infections [1]	Angiogenesis of embryonic chick chorioallantoic membrane (CAM) in vivo [2]	Inhibition of binding between coumarin-terpestacin and QP-C (blue fluorescence in the cytoplasm) [3]	Inhibition of binding between biotinylated terpestacin and QP-C-expressing bacteriophage T7 [4]	Angiogenic responses of HUVEC in vitro [5]	inhibition at 25 µM ([6]; read-out: Inhibition of the binding between biotin-terpestacin and QP-C protein)	Fluorescence staining of HUVECs ([3]; 20 μM, 2 hours)	VEGF-mediated tube formation of HUVECs [7]	Change of mitochondrial membrane potential (JC-1 red/green fluorescence) [8]	VEGF-mediated invasion of HUVECs [9]	Inhibition of the binding between biotin-terpestacin and QP-C protein [6]
C/C1=C\C[C@]2(C)C(=O)C(O)=C([C@H](C)CO)[C@H]2C/C=C(\C)[C@@H](O)CC/C(C)=C/CC1 [terpestacin]	inhibit the formation of syncytium	strongly inhibits angiogenesis	significant attenuation of blue fluorescence	significantly inhibited	strongly inhibits angiogenic responses	≤ 60%	–	–	–	–	–
C/C1=C/CC/C(C)=C/CC2(C)C(=O)C(O)=C(C(C)COC(=O)CCCCCNC(=O)CCCCCNC(=O)Cc3c(C)c4ccc(N)cc4oc3=O)C2C/C=C(\C)C(O)CC1 (stereo not shown) [coumarin-terpestacin]	–	–	–	–	–	–	intense blue fluorescence in the cytoplasm	–	–	–	–
O=C1Sc2ccc(S(=O)(=O)Nc3ccc(O)c4ccccc34)c3cccc1c23 [HDNT, 6-((1-hydroxynaphthalen-4-ylamino)dioxysulfone)-2H-naphtho[1,8-bc]thiophen-2-one]	–	–	blue fluorescence was significantly decreased	effectively inhibited	–	–	–	inhibited VEGF-mediated tube formation and invasion of HUVECs in a concentration-dependent manner	disrupts the mitochondrial membrane potential	inhibited VEGF-mediated tube formation and invasion of HUVECs in a concentration-dependent manner	40%
